This note sets out measurements from US9956199B2, “Chromane-like cyclic prenylflavonoids for the medical intervention in neurological disorders” (priority 2011, dated 2018).

Entries after “also recorded” stand apart in the source; their conditions may differ.

The test system of assay [1] is PC12 cells. As to the kind of experiment: PC12 cobalt-chloride stress test, LDH release. The format is cell-based, rat. Particulars: CoCl2 300 μM, 24 hours; compounds 10 μM, NGF 100 ng/ml; FIG. 7B. How it is done: (§1) For the neuroprotection assay PC12 cells were stressed with cobalt chloride 300 μM for 24 hours and the activity of Caspase 3/7 and LDH release were measured. NGF 50 ng/ml was used as a positive control for Caspase 3/7 activity and NGF 100 ng/ml was used as a positive control for LDH release.
(§2) For the PC12-CoCl2-Assay PC12 cells were used (ATCC: CRL-1721 ™). These cells were growing in RPMI supplemented with 10% Horse Serum (heat inactivated) (Sigma Aldrich, Taufkirchen, Germany), 5% Fetal Bovine Serum (Lonza, Wuppertal, Germany), 2.5% Penicillin/Streptomycin and Glutamine (PAA, Pasching, Austria) as adherent cultures when the plates are coated with Poly-L-ornithine ([…] in water) for at least one hour at 37° C. For passaging PC12-cells were resuspended with Accutase (PAA, Pasching, Austria) for 10 minutes at 37° C. once a week.
(§3) For all experiments cells were plated (quadruplicates) on Poly-L-ornithine-coated 96-well plates at a density of 10^4 cells per well. For Caspase 3/7-measurement cells were seeded in a white 96-well-plate to detect luminescence. As positive-control for neuroprotection Nerve Growth Factor (NGF) (50 ng/ml and 100 ng/ml) was used. To induce hypoxia CoCl2 (300 μM) was added to the cells after 20-24 hours. The control-treatment was compound 1a (ENDF1), compound 1b (ENDF3), compound 3a (ENDF2), ENDF4 or Osajin in the concentrations 1 μM and 10 μM in proliferation-media without CoCl2.
For LDH-release cells were centrifuged at 1050 rpm for 5 minutes. After 24 hours of stimulation, the supernatant was mixed in an equal amount with LDH-substrate and incubated in the dark for 30 minutes. Afterwards stop solution was added and absorbance was measured at 490 nm, the blank-values are subtracted.
Background: LDH leaks from cells whose membrane has failed.

Assay [2] deals with PC12 cells. As to the kind of experiment: PC12 cobalt-chloride stress test, Caspase 3/7 activation. Format: cell-based, rat. The note with it: CoCl2 300 μM, 24 hours; compounds 10 μM, NGF 50 ng/ml; FIG. 7A. The procedure:
as §1, §2, §3
For Caspase 3/7-activation Caspase 3/7 substrate was added to the cells in an equal amount 22 hours after stimulation. Plates are incubated for 2 hours at room temperature in the dark, luminescence was measured 24 hours after stimulation and the blank-values are subtracted.

In assay [3] the test system is chicken dorsal root ganglion neurons. As to the kind of experiment: neurite outgrowth in primary chicken dorsal root ganglion neurons. Format: cell-based. The note with it: E8 and E15 DRG neurons, 12 to 24 hours; compound 1a 10 μM, NGF 20 ng/ml; GAP-43 staining. How it is done:
Dorsal root ganglion neurons comprise of an axon with two branches and are a good model for neuronal differentiation. Embryonic day 8 and 15 chicken dorsal root ganglions were examined for immunochemical staining with GAP43 after incubation with NGF 20 ng/ml and compound 1a (ENDF1) 10 μM to analyze whether compound 1a alone or in combination with the nerve growth factor enhances neurite outgrowth and branching.
Embryonic day (E) 8 and E15 chicken Dorsal Root Ganglions (DRGs) were prepared as described in: Aigner, 1993; Aigner, 1995. Briefly, foetuses were taken out of the egg, decapitated and the DRGs were targeted from the ventral side. The 10 lumbar region DRGs per foetus were dissected, and a total of 100 DRGs were collected in 10 ml DPBS in a 15 ml Falcon tube. DRGs were centrifuged 120×g for 3 min and then enzymatically treated with 1 ml trypsin 0.5 mg/ml+EDTA 0.22 mg/ml (PAA, Pasching, Austria) for 15 min. Then, 9 ml of DMEM 10% FCS were added to inactivate the trypsin and DRGs were centrifuged 120×g for 5 min. DRGs were resuspended and washed with 5 ml of DMEM 10% FCS, pipetted up and down to dissociate them, centrifuged, resuspended in 5 ml of DMEM 10% FCS and transferred into a 60 mm diameter cell culture dish. […]

Regarding “NGF: Nerve Growth Factor, positive control for neuroprotection and neurite outgrowth”, the “protection from CoCl2 induced LDH release (cell death)” value in the assay with PC12 cells [1] was “partially protected; also recorded: slightly decrease the LDH release”. The “protection from CoCl2 induced Caspase 3/7 activity” value in the assay on PC12 cells [2] is reported as “partially protected; also recorded: inhibits CoCl2 induced Caspase 3/7 activity”. Moreover, in assay [3], the neurite extension result was “strongly promote neurite extension; also recorded: potent enhancer of neuronal differentiation”.
